From patent publication US20050227989A1, “Polycyclic thiazoles as potassium ion channel modulators” (ICAgen, Inc., priority 2004, published 2005)

Target: hSK2 (Homo sapiens, UniProt Q9H2S1)
Assay: 86Rb+ efflux assay for compound activity towards hSK channels
Assay type: cell-based
Settings: 86Rb+ efflux stimulated with calcium ionophore; drug 0.01 to 30 μM in EBSS; read-out: hSK2 Inhibitory Activity

Compound	IC50 [µM]
COc1ccc(Nc2nc(-c3nccs3)cs2)nc1 [[2,4′]Bithiazolyl-2′-yl-(5-methoxy-pyridin-2-yl)-amine]	0.1 to 1
c1csc(-c2csc(Nc3ccc(N4CCOCC4)cn3)n2)n1 [[2,4′]Bithiazolyl-2′-yl-(5-morpholin-4-yl-pyridin-2-yl)-amine]	0.1 to 1
O=[N+]([O-])c1ccc(Nc2nc(-c3nccs3)cs2)nc1 [[2,4′]Bithiazolyl-2′-yl-(5-nitro-pyridin-2-yl)-amine]	1 to 30
c1csc(-c2ccc(Nc3nc(-c4nccs4)cs3)nc2)c1 [[2,4′]Bithiazolyl-2′-yl-(5-thiophen-2-yl-pyridin-2-yl)-amine]	1 to 30
CN1CCN(c2ccc(Nc3nc(-c4nccs4)cs3)nc2)CC1 [[2,4′]Bithiazolyl-2′-yl-[5-(4-methyl-piperazin-1-yl)-pyridin-2-yl]-amine]	1 to 30
c1cncc(-c2ccc(Nc3nc(-c4nccs4)cs3)nc2)c1 [[3,3′]Bipyridinyl-6-yl-[2,4′]bithiazolyl-2′-yl-amine]	1 to 30
Cc1ccnc(Nc2nc(-c3c(C)nc4cc(C)ccn34)cs2)c1 [[4-(2,7-Dimethyl-imidazo[1,2-a]pyridin-3-yl)-thiazol-2-yl]-(4-methyl-pyridin-2-yl)-amine]	1 to 30
Cc1ccnc(Nc2nc(-c3c(C)nc4ccccn34)cs2)c1 [[4-(2-Methyl-imidazo[1,2-a]pyridin-3-yl)-thiazol-2-yl]-(4-methyl-pyridin-2-yl)-amine]	1 to 30
Cc1ccnc(Nc2nc(-c3c(C)nc4ncccn34)cs2)c1 [[4-(2-Methyl-imidazo[1,2-a]pyrimidin-3-yl)-thiazol-2-yl]-(4-methyl-pyridin-2-yl)-amine]	1 to 30
[(4-Methyl-pyridin-2-yl)-(4-pyridin-2-yl-thiazol-2-yl)-amine]2 Fe(II) nH2ClO4 Complex	< 0.03
[(4-Methyl-pyridin-2-yl)-(4-pyridin-2-yl-thiazol-2-yl)-amine]2 Zn(II) nHCl Complex	< 0.03

Target: SK2 subtype channels (Rattus norvegicus, UniProt P70604)
Assay: not given
Settings: patch clamp; cited from earlier work

Compound	block of SK2 channel currents
CN(C)CCC=C1c2ccccc2CCc2ccccc21 [amitriptyline]	block SK2 channel currents with micromolar affinity
NC(=O)N1c2ccccc2C=Cc2ccccc21 [carbamazepine]	block SK2 channel currents with micromolar affinity
CN(C)CCCN1c2ccccc2Sc2ccc(Cl)cc21 [chlorpromazine]	block SK2 channel currents with micromolar affinity
Nc1c2c(nc3ccccc13)CCCC2 [tacrine]	block SK2 channel currents with micromolar affinity

Target: T1, recombinant human SK4 (hIK1 or hKCa4) channels (Homo sapiens, UniProt O15554+P0DP23)
T1 construct: host or cells: HEK 293
Assay: not given
Settings: applied to the inside of SK4 channel-expressing membrane patches; cited from earlier work

Compound	activation of SK4 channels
[Ba+2] [Barium]	activated SK4 channels in a concentration-dependent manner
[Cd] [cadmium]	activated SK4 channels in a concentration-dependent manner
[Ca+2] [calcium]	activated SK4 channels in a concentration-dependent manner
[Co+2] [cobalt]	did not activate
[Fe] [iron]	did not activate
[Pb+2] [lead]	activated SK4 channels in a concentration-dependent manner
[Mg+2] [magnesium]	did not activate
[Sr+2] [strontium]	activated SK4 channels in a concentration-dependent manner
[Zn+2] [zinc]	did not activate
